Assay: Solubility of the azo compound
Type: physicochemical
Conditions: water; sodium salt

solubility: ≥ 100 mg/mL
SMILES: Cc1cc(N=Nc2c(S(=O)(=O)O)cc3c(S(=O)(=O)O)c(N=Nc4cc(S(=O)(=O)O)c5cc(S(=O)(=O)O)c(N=Nc6ccc([N+](=O)[O-])cc6S(=O)(=O)O)c(O)c5c4N)ccc3c2O)c(OCCCS(=O)(=O)O)cc1N=Nc1cc(S(=O)(=O)O)cc2cc(S(=O)(=O)O)cc(O)c12 [Compound No. 3]
